Experimental data from patent US9586968B2, “Bicycloamine-substituted-N-benzenesulfonamide compounds with selective activity in voltage-gated sodium channels” (Merck Sharp & Dohme Corp., priority 2013, dated 2017).
pIC50: −log10 of the molar value.

Columns and labels:
[1] = biological target: T1, human Nav1.7 (Homo sapiens, UniProt Q15858); assay: PatchXpress automated patch-clamp, inactivated state block of Nav1.7; type: cell-based; conditions: channels stably expressed in HEK 293 cells, 22° C., read-out: potency for the Nav 1.7 sodium ion channel (as measured by PatchXpress)
T1 construct: expressed in transfected cells
T1 sequence (Q15858 whole entry): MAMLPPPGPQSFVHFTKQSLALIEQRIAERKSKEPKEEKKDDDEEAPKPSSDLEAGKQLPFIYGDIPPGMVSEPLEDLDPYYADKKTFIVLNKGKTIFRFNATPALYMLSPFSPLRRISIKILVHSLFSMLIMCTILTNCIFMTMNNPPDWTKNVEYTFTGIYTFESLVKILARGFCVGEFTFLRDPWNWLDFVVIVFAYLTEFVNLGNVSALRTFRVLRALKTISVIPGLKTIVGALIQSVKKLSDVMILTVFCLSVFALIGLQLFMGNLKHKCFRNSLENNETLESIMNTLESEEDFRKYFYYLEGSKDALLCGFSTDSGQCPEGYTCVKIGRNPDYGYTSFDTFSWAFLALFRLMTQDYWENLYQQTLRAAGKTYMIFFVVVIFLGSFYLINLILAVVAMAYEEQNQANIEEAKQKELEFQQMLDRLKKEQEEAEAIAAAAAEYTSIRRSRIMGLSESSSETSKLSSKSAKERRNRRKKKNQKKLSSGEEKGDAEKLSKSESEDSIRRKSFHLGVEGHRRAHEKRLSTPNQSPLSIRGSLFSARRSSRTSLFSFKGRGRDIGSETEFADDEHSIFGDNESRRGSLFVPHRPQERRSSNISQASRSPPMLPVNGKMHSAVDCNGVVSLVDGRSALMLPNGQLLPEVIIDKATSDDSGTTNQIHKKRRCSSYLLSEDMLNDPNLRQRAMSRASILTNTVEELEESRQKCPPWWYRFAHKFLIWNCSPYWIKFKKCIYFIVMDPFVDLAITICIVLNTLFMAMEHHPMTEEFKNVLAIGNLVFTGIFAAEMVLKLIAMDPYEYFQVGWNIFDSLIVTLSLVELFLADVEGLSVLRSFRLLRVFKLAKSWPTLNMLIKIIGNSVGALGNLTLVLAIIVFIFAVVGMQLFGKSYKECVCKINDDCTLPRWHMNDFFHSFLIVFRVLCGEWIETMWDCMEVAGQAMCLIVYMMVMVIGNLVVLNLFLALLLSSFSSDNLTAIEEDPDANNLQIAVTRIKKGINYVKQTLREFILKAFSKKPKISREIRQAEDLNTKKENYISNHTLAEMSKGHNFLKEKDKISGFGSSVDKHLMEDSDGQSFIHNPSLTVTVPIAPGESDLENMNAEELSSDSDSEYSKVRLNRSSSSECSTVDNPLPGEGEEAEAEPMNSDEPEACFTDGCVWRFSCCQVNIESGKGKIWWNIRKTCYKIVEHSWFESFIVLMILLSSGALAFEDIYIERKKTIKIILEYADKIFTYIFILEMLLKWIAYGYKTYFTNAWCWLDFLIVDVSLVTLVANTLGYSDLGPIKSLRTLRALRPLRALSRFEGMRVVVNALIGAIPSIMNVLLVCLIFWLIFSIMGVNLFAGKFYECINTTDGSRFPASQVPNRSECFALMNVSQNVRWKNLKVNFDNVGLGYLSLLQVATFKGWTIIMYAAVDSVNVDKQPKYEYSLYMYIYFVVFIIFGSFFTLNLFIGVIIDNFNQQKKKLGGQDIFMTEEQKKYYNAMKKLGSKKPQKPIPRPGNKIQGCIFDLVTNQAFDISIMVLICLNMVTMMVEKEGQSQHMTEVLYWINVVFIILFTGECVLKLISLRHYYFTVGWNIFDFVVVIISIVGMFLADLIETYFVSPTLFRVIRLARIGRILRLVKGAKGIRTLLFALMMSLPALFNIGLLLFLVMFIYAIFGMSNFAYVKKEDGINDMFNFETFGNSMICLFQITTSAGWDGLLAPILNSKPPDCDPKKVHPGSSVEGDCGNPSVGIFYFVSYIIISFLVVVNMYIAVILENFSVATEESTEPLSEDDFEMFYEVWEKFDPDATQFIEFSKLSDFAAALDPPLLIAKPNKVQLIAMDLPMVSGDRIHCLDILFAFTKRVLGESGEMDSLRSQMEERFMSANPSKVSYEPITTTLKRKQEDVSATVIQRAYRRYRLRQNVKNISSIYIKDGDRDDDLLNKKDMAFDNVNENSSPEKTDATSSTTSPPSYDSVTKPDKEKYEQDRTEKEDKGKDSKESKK
Method: (§1) Compounds were tested on human Nav1.7 and Nav1.5 channels stably expressed in HEK 293 cells. Activity toward Nav 1.7 and Nav 1.5 channels was assessed using the following assay methodology.
(§2) Sodium Current Measurements on the PatchXpress 7000®:
(§3) To measure inactivated state block of sodium channels, test compounds were characterized in an automated PatchXpress® assay (Molecular Devices) using a double-pulse protocol on human Nav1.7 and Nav1.5 channels stably expressed in HEK 293 cells. Cells were held at a potential 20 mV negative to V0.5 inact. An 8000 ms pre-pulse 7 mV positive to V0.5 inact was given followed by a hyperpolarizing 2 ms pulse to −120 mV and a 20 ms test pulse to −20 mV. Protocol was applied to cells in the absence, presence of compound and after washout. The temperature of PatchXpress instruments was maintained at 22° C. The following recording solutions were used. Internal solution (mM): 30 CsCl, 5 HEPES, 10 EGTA, 120 CsF, 5 NaF, 2 MgCl2. External solution (mM): 120 NMDG, 40 NaCl, 1 KCl, 0.5 MgCl2, 5 HEPES, 2.7 CaCl2.
(§4) For all electrophysiology experiments, offline analysis was used to correct for current rundown and to determine percent inhibition as a function of drug concentration. IC50 values were determined by fitting to the Hill equation.

[2] = biological target: T2, human Nav1.5 (Homo sapiens, UniProt Q14524); assay: PatchXpress automated patch-clamp, inactivated state block of Nav1.5 (selectivity); type: cell-based; conditions: determined by PatchXpress measurement, HEK 293 cells
T2 construct: expressed in transfected cells
T2 sequence (Q14524 whole entry): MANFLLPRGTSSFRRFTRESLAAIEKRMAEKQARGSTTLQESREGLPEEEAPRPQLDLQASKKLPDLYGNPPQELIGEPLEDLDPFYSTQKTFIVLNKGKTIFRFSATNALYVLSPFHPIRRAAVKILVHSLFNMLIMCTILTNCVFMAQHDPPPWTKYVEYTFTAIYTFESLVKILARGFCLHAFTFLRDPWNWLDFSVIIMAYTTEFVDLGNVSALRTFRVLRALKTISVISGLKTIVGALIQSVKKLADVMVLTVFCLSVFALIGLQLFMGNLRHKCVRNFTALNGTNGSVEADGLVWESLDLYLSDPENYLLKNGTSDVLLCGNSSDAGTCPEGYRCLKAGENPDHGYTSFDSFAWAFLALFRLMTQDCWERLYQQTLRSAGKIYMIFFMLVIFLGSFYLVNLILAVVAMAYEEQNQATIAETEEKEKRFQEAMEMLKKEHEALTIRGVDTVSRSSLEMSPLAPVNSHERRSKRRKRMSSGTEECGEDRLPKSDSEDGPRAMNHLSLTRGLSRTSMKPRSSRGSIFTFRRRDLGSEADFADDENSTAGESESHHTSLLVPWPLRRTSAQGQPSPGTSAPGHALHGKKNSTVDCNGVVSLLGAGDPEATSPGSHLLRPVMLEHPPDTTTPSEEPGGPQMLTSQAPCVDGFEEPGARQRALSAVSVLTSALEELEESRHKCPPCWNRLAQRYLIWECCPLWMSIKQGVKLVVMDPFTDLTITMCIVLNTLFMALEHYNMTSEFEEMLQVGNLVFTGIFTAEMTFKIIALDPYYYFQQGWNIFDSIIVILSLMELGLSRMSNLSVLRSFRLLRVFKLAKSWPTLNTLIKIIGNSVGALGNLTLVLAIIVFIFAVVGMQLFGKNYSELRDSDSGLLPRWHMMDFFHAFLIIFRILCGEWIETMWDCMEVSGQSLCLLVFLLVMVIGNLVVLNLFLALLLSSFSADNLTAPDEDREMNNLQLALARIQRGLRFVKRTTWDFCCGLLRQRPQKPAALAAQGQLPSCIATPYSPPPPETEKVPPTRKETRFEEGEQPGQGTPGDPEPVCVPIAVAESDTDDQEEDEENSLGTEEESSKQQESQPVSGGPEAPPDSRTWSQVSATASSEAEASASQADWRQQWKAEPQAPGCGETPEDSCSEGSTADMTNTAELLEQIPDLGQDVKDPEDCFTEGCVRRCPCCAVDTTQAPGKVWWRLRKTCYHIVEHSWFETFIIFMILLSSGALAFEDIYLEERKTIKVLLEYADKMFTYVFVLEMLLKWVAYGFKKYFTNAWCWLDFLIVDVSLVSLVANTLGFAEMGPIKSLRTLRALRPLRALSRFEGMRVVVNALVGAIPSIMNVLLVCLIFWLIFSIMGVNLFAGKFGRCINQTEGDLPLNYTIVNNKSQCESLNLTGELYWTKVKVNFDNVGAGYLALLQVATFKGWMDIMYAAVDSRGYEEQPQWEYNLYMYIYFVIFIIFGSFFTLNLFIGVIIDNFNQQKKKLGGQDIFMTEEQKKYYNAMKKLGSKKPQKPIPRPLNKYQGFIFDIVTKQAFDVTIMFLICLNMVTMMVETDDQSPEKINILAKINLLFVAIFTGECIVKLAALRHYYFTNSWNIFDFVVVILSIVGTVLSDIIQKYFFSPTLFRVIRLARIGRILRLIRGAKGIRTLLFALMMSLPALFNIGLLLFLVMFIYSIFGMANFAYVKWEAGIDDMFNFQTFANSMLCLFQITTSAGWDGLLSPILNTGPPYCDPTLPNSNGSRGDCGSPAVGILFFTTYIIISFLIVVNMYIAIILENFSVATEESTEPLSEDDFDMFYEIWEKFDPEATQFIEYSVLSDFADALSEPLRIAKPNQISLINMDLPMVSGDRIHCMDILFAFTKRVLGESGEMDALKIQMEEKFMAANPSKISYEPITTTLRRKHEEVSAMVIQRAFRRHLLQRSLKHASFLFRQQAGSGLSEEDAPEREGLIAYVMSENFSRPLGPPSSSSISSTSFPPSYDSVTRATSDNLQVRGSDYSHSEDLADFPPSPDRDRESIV
Method: as §1, §2, §3, §4

CC1(C)CN2CCCC2(CNc2cc(F)c(S(=O)(=O)Nc3ncc(F)s3)cc2Cl)C1 (single isomer, unassigned) [Ex8-21-A, (R or S) 5-chloro-4-(((2,2-dimethylhexahydro-1H-pyrrolizin-7a-yl)methyl)amino)-2-fluoro-N-(5-fluorothiazol-2-yl)benzenesulfonamide]
pIC50 [1]: 7.46
ratio of Nav1.7 potency:Nav 1.5 potency [2]: 851

CC1(C)CN2CCCC2(CNc2cc(F)c(S(=O)(=O)Nc3ncc(F)s3)cc2Cl)C1 (single isomer, unassigned) [Ex8-21-B, (S or R) 5-chloro-4-(((2,2-dimethylhexahydro-1H-pyrrolizin-7a-yl)methyl)-amino)-2-fluoro-N-(5-fluorothiazol-2-yl)-benzenesulfonamide]
pIC50 [1]: 7.64
ratio of Nav1.7 potency:Nav 1.5 potency [2]: 1290

CC1(C)CN2CCCC2(CNc2ccc(S(=O)(=O)Nc3nccs3)cc2C(F)(F)F)C1 (single isomer, unassigned) [Ex8-23-A, (R or S) 4-(((2,2-dimethylhexahydro-1H-pyrrolizin-7a-yl)methyl)-amino)-N-(thiazol-2-yl)-3-(trifluoromethyl)benzene-sulfonamide]
pIC50 [1]: 6.76
ratio of Nav1.7 potency:Nav 1.5 potency [2]: 175

CC1(C)CN2CCCC2(CNc2ccc(S(=O)(=O)Nc3nccs3)cc2C(F)(F)F)C1 (single isomer, unassigned) [Ex8-23-B, (S or R) 4-(((2,2-dimethylhexahydro-1H-pyrrolizin-7a-yl)methyl)amino)-N-(thiazol-2-yl)-3-(trifluoromethyl)-benzenesulfonamide]
pIC50 [1]: 7.51
ratio of Nav1.7 potency:Nav 1.5 potency [2]: 981

O=S(=O)(Nc1ncc(F)s1)c1cc(Cl)c(NCC23CCCN2CC(F)C3)cc1F (single isomer, unassigned) [Ex9-10-A, 5-chloro-2-fluoro-4-((((2R,7aS or 2S,7aR)-2-fluoro-hexahydro-1H-pyrrolizin-7a-yl)-methyl)amino)-N-(5-fluorothiazol-2-yl)-benzenesulfonamide]
pIC50 [1]: 6.83
ratio of Nav1.7 potency:Nav 1.5 potency [2]: 137

O=S(=O)(Nc1ncc(F)s1)c1cc(Cl)c(NCC23CCCN2CC(F)C3)cc1F (single isomer, unassigned) [Ex9-10-B, 5-chloro-2-fluoro-4-((((2S,7aR or 2R,7aS)-2-fluoro-hexahydro-1H-pyrrolizin-7a-yl)-methyl)amino)-N-(5-fluorothiazol-2-yl)-benzenesulfonamide]
pIC50 [1]: 7.24
ratio of Nav1.7 potency:Nav 1.5 potency [2]: 122

O=S(=O)(Nc1ncc(F)s1)c1ccc(NCC23CCCN2CC(F)C3)c(C(F)(F)F)c1 (single isomer, unassigned) [Ex9-12-A, 4-((((2R,7aS or 2S,7aR)-2-fluoro-hexahydro-1H-pyrrolizin-7a-yl)-methyl)amino)-N-(5-fluorothiazol-2-yl)-3-(trifluoromethyl)-benzenesulfonamide]
pIC50 [1]: 7.05
ratio of Nav1.7 potency:Nav 1.5 potency [2]: 338

O=S(=O)(Nc1ncc(F)s1)c1ccc(NCC23CCCN2CC(F)C3)c(C(F)(F)F)c1 (single isomer, unassigned) [Ex9-12-B, 4-((((2S,7aR or 2R,7aS)-2-fluoro-hexahydro-1H-pyrrolizin-7a-yl)methyl)amino)-N-(5-fluorothiazol-2-yl)-3-(trifluoromethyl)-benzenesulfonamide]
pIC50 [1]: 7.10
ratio of Nav1.7 potency:Nav 1.5 potency [2]: 300

O=S(=O)(Nc1ncc(F)s1)c1ccc(NCC23CCCN2CC(F)C3)c(Cl)c1 (single isomer, unassigned) [Ex9-14-A, 3-chloro-4-((((2R,7aS or 2S,7aR)-2-fluoro-hexahydro-1H-pyrrolizin-7a-yl)-methyl)amino)-N-(5-fluorothiazol-2-yl)-benzenesulfonamide]
pIC50 [1]: 6.84
ratio of Nav1.7 potency:Nav 1.5 potency [2]: 208

O=S(=O)(Nc1ncc(F)s1)c1ccc(NCC23CCCN2CC(F)C3)c(Cl)c1 (single isomer, unassigned) [Ex9-14-B, 3-chloro-4-((((2S,7aR or 2R,7aS)-2-fluoro-hexahydro-1H-pyrrolizin-7a-yl)methyl)amino)-N-(5-fluorothiazol-2-yl)-benzenesulfonamide]
pIC50 [1]: 6.75
ratio of Nav1.7 potency:Nav 1.5 potency [2]: 171

O=S(=O)(Nc1nccs1)c1cc(Cl)c(NC[C@]23CCCN2CC2(C3)OCCO2)cc1F (single isomer, unassigned) [Ex10-7-A]
pIC50 [1]: 8.00
ratio of Nav1.7 potency:Nav 1.5 potency [2]: 3074

O=S(=O)(Nc1nccs1)c1cc(Cl)c(NC[C@@]23CCCN2CC2(C3)OCCO2)cc1F (single isomer, unassigned) [Ex10-7-B]
pIC50 [1]: 7.49
ratio of Nav1.7 potency:Nav 1.5 potency [2]: 935

O=S(=O)(Nc1ncc(Cl)s1)c1cc(Cl)c(NCC23CCCN2CC2(C3)OCCO2)cc1F (single isomer, unassigned) [Ex10-9-A, (S or R)-5-chloro-N-(5-chlorothiazol-2-yl)-2-fluoro-4-(((hexahydro-spiro[[1,3]dioxolane-2,2′-pyrrolizin]-7a′-yl)-methyl)amino)-benzenesulfonamide]
pIC50 [1]: 7.60
ratio of Nav1.7 potency:Nav 1.5 potency [2]: 1210

O=S(=O)(Nc1ncc(Cl)s1)c1cc(Cl)c(NCC23CCCN2CC2(C3)OCCO2)cc1F (single isomer, unassigned) [Ex10-9-B, (R or S)-5-chloro-N-(5-chloro-thiazol-2-yl)-2-fluoro-4-(((hexahydrospiro[[1,3]-dioxolane-2,2′-pyrrolizin]-7a′-yl)-methyl)amino)-benzenesulfonamide]
pIC50 [1]: 6.97
ratio of Nav1.7 potency:Nav 1.5 potency [2]: 277

C[C@H]1CC[C@]2(CNc3cc(F)c(S(=O)(=O)Nc4nccs4)cc3Cl)CCCN12 (single isomer, unassigned) [Ex11-8-A]
pIC50 [1]: 7.46
ratio of Nav1.7 potency:Nav 1.5 potency [2]: 305

C[C@@H]1CC[C@@]2(CNc3cc(F)c(S(=O)(=O)Nc4nccs4)cc3Cl)CCCN12 (single isomer, unassigned) [Ex11-8-B]
pIC50 [1]: 8.22
ratio of Nav1.7 potency:Nav 1.5 potency [2]: 2533

CC1CCC2(CNc3ccc(S(=O)(=O)Nc4nccs4)cc3C(F)(F)F)CCCN12 (single isomer, unassigned) [Ex11-10-A, 4-((((3S,7aS or 3R,7aR)-3-methyl-hexahydro-1H-pyrrolizin-7a-yl)methyl)-amino)-N-(thiazol-2-yl)-3-(trifluoromethyl)-benzenesulfonamide]
pIC50 [1]: 7.66
ratio of Nav1.7 potency:Nav 1.5 potency [2]: 1376

CC1CCC2(CNc3ccc(S(=O)(=O)Nc4nccs4)cc3C(F)(F)F)CCCN12 (single isomer, unassigned) [Ex11-10-B, 4-((((3R,7aR or 3S,7aS)-3-methylhexahydro-1H-pyrrolizin-7a-yl)methyl)-amino)-N-(thiazol-2-yl)-3-(trifluoromethyl)-benzenesulfonamide]
pIC50 [1]: 7.40
ratio of Nav1.7 potency:Nav 1.5 potency [2]: 755

CC1CCC2(CNc3ccc(S(=O)(=O)Nc4ncc(F)s4)cc3Cl)CCCN12 (single isomer, unassigned) [Ex11-12-A, 3-chloro-N-(5-fluorothiazol-2-yl)-4-((((3S,7aS or 3R,7aR)-3-methylhexahydro-1H-pyrrolizin-7a-yl)methyl)amino)benzene-sulfonamide]
pIC50 [1]: 7.66
ratio of Nav1.7 potency:Nav 1.5 potency [2]: 1335

CC1CCC2(CNc3ccc(S(=O)(=O)Nc4ncc(F)s4)cc3Cl)CCCN12 (single isomer, unassigned) [Ex11-12-B, 3-chloro-N-(5-fluorothiazol-2-yl)-4-((((3R,7aR or 3S,7aS)-3-methylhexahydro-1H-pyrrolizin-7a-yl)methyl)-amino)benzene-sulfonamide]
pIC50 [1]: 7.52
ratio of Nav1.7 potency:Nav 1.5 potency [2]: 1017

O=S(=O)(Nc1nccs1)c1cc(Cl)c(NC[C@@]23CCCN2CC2(CC2)C3)cc1F (single isomer, unassigned) [Ex13-10-A]
pIC50 [1]: 6.90
ratio of Nav1.7 potency:Nav 1.5 potency [2]: 113

O=S(=O)(Nc1nccs1)c1cc(Cl)c(NC[C@]23CCCN2CC2(CC2)C3)cc1F (single isomer, unassigned) [Ex13-10-B]
pIC50 [1]: 7.80
ratio of Nav1.7 potency:Nav 1.5 potency [2]: 406

O=S(=O)(Nc1ncc(F)s1)c1ccc(NCC23CCCN2CC2(CC2)C3)c(C(F)(F)F)c1 (single isomer, unassigned) [Ex13-12-A, (S or R)-N-(5-fluorothiazol-2-yl)-4-(((hexahydrospiro-[cyclopropane-1,2′-pyrrolizin]-7a′-yl)methyl)-amino)-3-(trifluoromethyl)-benzenesulfonamide]
pIC50 [1]: 7.66
ratio of Nav1.7 potency:Nav 1.5 potency [2]: 756

O=S(=O)(Nc1ncc(F)s1)c1ccc(NCC23CCCN2CC2(CC2)C3)c(C(F)(F)F)c1 (single isomer, unassigned) [Ex13-12-B, (R or S)-N-(5-fluorothiazol-2-yl)-4-(((hexahydrospiro-[cyclopropane-1,2′-pyrrolizin]-7a′-yl)methyl)-amino)-3-(trifluoromethyl)-benzenesulfonamide]
pIC50 [1]: 8.15
ratio of Nav1.7 potency:Nav 1.5 potency [2]: 3240

O=S(=O)(Nc1nccs1)c1cc(Cl)c(NC[C@@]23CCCN2[C@H](CO)CC3)cc1F (single isomer, unassigned) [Ex14-11-A]
pIC50 [1]: 7.55
ratio of Nav1.7 potency:Nav 1.5 potency [2]: 1062

O=S(=O)(Nc1nccs1)c1cc(Cl)c(NC[C@]23CCCN2[C@@H](CO)CC3)cc1F (single isomer, unassigned) [Ex14-11-B]
pIC50 [1]: 8.00
ratio of Nav1.7 potency:Nav 1.5 potency [2]: 3045
